# In patent US20210100777A1, “HEAT SHOCK PROTEIN (HSP) INHIBITION AND MONITORING EFFECTIVENESS THEREOF” (H. LEE MOFFITT CANCER CENTER AND RESEARCH INSTITUTE, INC., priority 2013, published 2021):
# Experiments:
# Type in all cases: cell-based, human
# [1] = tested on: HSPs in RPMI-8226 cells; test: DI-MRM relative quantification of HSPs after 17-DMAG (Example 2); details: RPMI-8226, 100 nM
# Experimental: Synthesis and DI MRM of Standard Peptides. Standard peptides were synthesized and characterized as described previously (Remily-Wood et al., Proteomics Clin. Appl. 5:383-96 (2011)). An automated chip-based nanoelectrospray ion source, (NanoMate100, Advion BioSciences, Ithaca, N.Y.), was mounted on a triple quadrupole mass spectrometer (TSQ Vantage, Thermo, San Jose, Calif.). […] (SEQ ID NO:17) were diluted to 1 μM in 50% aqueous ACN with 0.1% formic acid. For synthetic peptide infusion, the spray voltage was tuned between 1.5 and 1.9 kV for stable ion signal. The gas pressure was set to 0.3 psi. Data were acquired at 20 ms per transition for 2 minutes using m/z 0.002 scan widths. The quadrupole resolution values were modulated from 0.2 to 0.7.
# Standard Protein DI-MRM. As described below, a dilution series of BSA digest was created in 50% aqueous acetonitrile with 0.1% formic acid spiked with five synthetic peptide standards (20 nM). In DI-MRM, the spray voltage was set to 1.6 kV, and the gas pressure was set to 0.3 psi. Peptide selection was performed using Q1=0.4; fragment ion selection was performed using Q3=0.7. Transitions (n=36) were monitored for 20 ms each with scan width set to 0.002; data were acquired for 5 minutes.
# (§1) Cell Culture, Lysis, and HSP Sample Preparation for Mass Spectrometry. RPMI-8226 and 8226/LR5 cells were maintained as previously described (Bellamy et al., Cancer Res. 51:995-1002 (1991); Remily-Wood et al., Proteomics Clin. Appl. 5:383-96 (2011)). The heat shock protein 90 inhibitor, 17-desmethoxy-17-N,N-dimethylaminoethylamino-geldanamycin (17-DMAG), was dissolved in DMSO (100 μM stock). Based on prior IC50 measurements, the RPMI-8226 cells were treated with 100 nM 17-DMAG for 24 hours, and 8226/LR5 cells were treated with 50 nM 17-DMAG. Cells (n=10^6) were lysed using in aqueous 100 mM ammonium bicarbonate containing 8M urea for protein denaturation. Protein concentrations were measured by Bradford assays; consistent aliquots of total protein (380 ng) were injected for LC-MRM, and the same solutions were used for DI-MRM. Digestion, addition of SIS peptides, and mass spectrometry sample preparation were performed as described for standard proteins.
# Calculation of Correction Factors to Account for Interference in DI MRM. […] To evaluate the ability to eliminate these contributions, correction factors were calculated based on LC-MRM data using the following set of equations (Equations 1 and 2): […]
# [2] = tested on: HSPs in RPMI-8226 cells; test: LC-MRM relative quantification of HSPs after 17-DMAG (Example 2); details: for CDC37 Fold Change, LC-MRM / HS90A Fold Change, LC-MRM / HS90B Fold Change, LC-MRM / HSP7C Fold Change, LC-MRM / HSP7E Fold Change, LC-MRM / HSP71 Fold Change, LC-MRM / HSP74 Fold Change, LC-MRM / HSPA5 Fold Change, LC-MRM / HSP90α Fold Change, LC-MRM: RPMI-8226, 100 nM; for CDC37 Fold Change, LC-MRM / HS90A Fold Change, LC-MRM / HS90B Fold Change, LC-MRM / HSP7C Fold Change, LC-MRM / HSP7E Fold Change, LC-MRM / HSP71 Fold Change, LC-MRM / HSP74 Fold Change, LC-MRM / HSPA5 Fold Change, LC-MRM: 24 hrs after treatment vs. control; for HSP90α Fold Change, LC-MRM: 24 hrs vs. control
# Experimental: as §1
# (§2) […] Quantification. For HSP proteins in cell lysate, 184 transitions from 32 peptides (see Table 2) were monitored as previously described (Remily-Wood et al., Proteomics Clin. Appl. 5:383-96 (2011)). Both relative and absolute quantification were calculated from the sum of the peak areas for all detected transitions using Skyline (MacLean et al., Bioinformatics 26:966-8 (2010)) or the combination of MRMer (Martin et al., Mol. Cell Proteomics 7:2270-8 (2008)) and Post-MRMer (http://proteome.moffitt. org).
# [3] = tested on: HSPs in 8226/LR5 cells; test: as above; details: for CDC37 Fold Change, LC-MRM / HS90A Fold Change, LC-MRM / HS90B Fold Change, LC-MRM / HSP7C Fold Change, LC-MRM / HSP7E Fold Change, LC-MRM / HSP71 Fold Change, LC-MRM / HSP74 Fold Change, LC-MRM / HSPA5 Fold Change, LC-MRM / HSP90α Fold Change, LC-MRM: 8226/LR5, 50 nM; for CDC37 Fold Change, LC-MRM / HS90A Fold Change, LC-MRM / HS90B Fold Change, LC-MRM / HSP7C Fold Change, LC-MRM / HSP7E Fold Change, LC-MRM / HSP71 Fold Change, LC-MRM / HSP74 Fold Change, LC-MRM / HSPA5 Fold Change, LC-MRM: 24 hrs after treatment vs. control; for HSP90α Fold Change, LC-MRM: 24 hrs vs. control
# Experimental: as §1, §2
# [4] = 24 hrs vs. control, all LC-MRM transitions, interference-corrected
# [5] = 24 hrs vs. control, noise corrected, only transitions below 40% interference
# [6] = y3-y5 (DI-MRM Interference-Corrected)
# [7] = y3-y6 (DI-MRM Interference-Corrected)
compound,measurement,setting,value
"CO[C@H]1/C=C\C=C(/C)C(=O)NC2=CC(=O)C(NCCN(C)C)=C(C[C@@H](C)C[C@H](OC)[C@H](O)[C@@H](C)/C=C(\C)[C@@H]1OC(N)=O)C2=O [17-DMAG, 17-Dimethylaminoethylamino-17-demethoxygeldanamycin]","HSP90α Fold Change, DI-MRM","[1]; 24 hrs after treatment vs. control, ALLFVPR y3-y6 (All LC-MRM Transitions)",1.86
same,"CDC37 Fold Change, DI-MRM",[1]; [4],1.08
same,"HS90A Fold Change, DI-MRM",[1]; [4],1.86
same,"HS90B Fold Change, DI-MRM",[1]; [4],1.46
same,"HSP7C Fold Change, DI-MRM",[1]; [4],1.52
same,"HSP7E Fold Change, DI-MRM",[1]; [4],0.87
same,"HSP71 Fold Change, DI-MRM",[1]; [4],6.10
same,"HSP74 Fold Change, DI-MRM",[1]; [4],1.22
same,"HSPA5 Fold Change, DI-MRM",[1]; [4],3.43
same,"CDC37 Fold Change, DI-MRM",[1]; [5],1.20
same,"HS90A Fold Change, DI-MRM",[1]; [5],1.85
same,"HS90B Fold Change, DI-MRM",[1]; [5],1.46
same,"HSP7C Fold Change, DI-MRM",[1]; [5],1.84
same,"HSP7E Fold Change, DI-MRM",[1]; [5],0.81
same,"HSP71 Fold Change, DI-MRM",[1]; [5],6.10
same,"HSP74 Fold Change, DI-MRM",[1]; [5],1.37
same,"HSPA5 Fold Change, DI-MRM",[1]; [5],2.53
same,"HSP90α Fold Change, DI-MRM","[1]; 24 hrs vs. control, y3 (Least Interference)",2.96
same,"HSP90α Fold Change, DI-MRM","[1]; 24 hrs vs. control, y3-y5 (DI-MRM Interference-Corrected)",1.85
same,"HSP90α Fold Change, DI-MRM","[1]; 24 hrs vs. control, y3-y5 (Selected Transitions)",1.85
same,"HSP90α Fold Change, DI-MRM","[1]; 24 hrs vs. control, y3-y6 (DI-MRM Interference-Corrected)",1.87
same,"CDC37 Fold Change, LC-MRM",[2]; Table 6,1.33
same,"HS90A Fold Change, LC-MRM",[2]; Table 6,2.21
same,"HS90B Fold Change, LC-MRM",[2]; Table 6,1.53
same,"HSP7C Fold Change, LC-MRM",[2]; Table 6,2.28
same,"HSP7E Fold Change, LC-MRM",[2]; Table 6,1.23
same,"HSP71 Fold Change, LC-MRM",[2]; Table 6,4.67
same,"HSP74 Fold Change, LC-MRM",[2]; Table 6,1.45
same,"HSPA5 Fold Change, LC-MRM",[2]; Table 6,2.66
same,"CDC37 Fold Change, LC-MRM",[2]; Table 7,1.33
same,"HS90A Fold Change, LC-MRM",[2]; Table 7,2.21
same,"HS90B Fold Change, LC-MRM",[2]; Table 7,1.53
same,"HSP7C Fold Change, LC-MRM",[2]; Table 7,2.28
same,"HSP7E Fold Change, LC-MRM",[2]; Table 7,1.23
same,"HSP71 Fold Change, LC-MRM",[2]; Table 7,4.67
same,"HSP74 Fold Change, LC-MRM",[2]; Table 7,1.45
same,"HSPA5 Fold Change, LC-MRM",[2]; Table 7,2.66
same,"HSP90α Fold Change, LC-MRM",[2]; y3 (Least Interference),2.19
same,"HSP90α Fold Change, LC-MRM",[2]; [6],2.21
same,"HSP90α Fold Change, LC-MRM",[2]; y3-y5 (Selected Transitions),2.21
same,"HSP90α Fold Change, LC-MRM",[2]; [7],2.21
same,"HSP90α expression increase, LC-MRM","[2]; RPMI-8226, 24 hours after treatment, same for y3-y6, y3-y5 or just y3",approximately 2.2 fold
same,"CDC37 Fold Change, LC-MRM",[3]; Table 6,1.08
same,"HS90A Fold Change, LC-MRM",[3]; Table 6,1.23
same,"HS90B Fold Change, LC-MRM",[3]; Table 6,1.28
same,"HSP7C Fold Change, LC-MRM",[3]; Table 6,1.56
same,"HSP7E Fold Change, LC-MRM",[3]; Table 6,0.99
same,"HSP71 Fold Change, LC-MRM",[3]; Table 6,3.54
same,"HSP74 Fold Change, LC-MRM",[3]; Table 6,1.34
same,"HSPA5 Fold Change, LC-MRM",[3]; Table 6,1.53
same,"CDC37 Fold Change, LC-MRM",[3]; Table 7,1.08
same,"HS90A Fold Change, LC-MRM",[3]; Table 7,1.23
same,"HS90B Fold Change, LC-MRM",[3]; Table 7,1.28
same,"HSP7C Fold Change, LC-MRM",[3]; Table 7,1.56
same,"HSP7E Fold Change, LC-MRM",[3]; Table 7,0.99
same,"HSP71 Fold Change, LC-MRM",[3]; Table 7,3.54
same,"HSP74 Fold Change, LC-MRM",[3]; Table 7,1.34
same,"HSPA5 Fold Change, LC-MRM",[3]; Table 7,1.53
same,"HSP90α Fold Change, LC-MRM",[3]; y3 (Least Interference),1.26
same,"HSP90α Fold Change, LC-MRM",[3]; [6],1.23
same,"HSP90α Fold Change, LC-MRM",[3]; y3-y5 (Selected Transitions),1.23
same,"HSP90α Fold Change, LC-MRM",[3]; [7],1.23
same,"HSP90α expression increase, LC-MRM","[3]; 8226/LR5, 24 hours after treatment, same for y3-y6, y3-y5 or just y3",~1.2 fold
